Experimental data from US9880171B2, “iASPP phosphorylation and metastatic potential” (LUDWIG INSTITUTE FOR CANCER RESEARCH LTD., priority 2012, dated 2018).

Assays:
[1] = tested on: p53 expression in SK-MEL37, WM278 and Me300 cells; assay: p53 level after Nutlin3 treatment, human melanoma cells; type: cell-based
Experimental: FIG. 20. Restoring p53 by inhibiting mdm2 and iASPP suppresses melanoma growth in vitro and in vivo. FIG. 20A. H1299 cells were treated with DMSO or 10 μM nocodazole in the presence or absence of 2 or 10 μM of mitosis-related kinase inhibitors as indicated. […] FIG. 20B. Left panel: representative p53 level after Nutlin3 treatment for 24 hours in a variety of cells. Right bar graphs show the sub-G1 proportion of WM278 after treatment as that described in FIG. 19B (in upper panel, 10 μM and 20 μM Nutlin3 were used in parallel for comparison). From left to right of the upper right bar graph of FIG. 20B, the bars correspond to DMSO, Nut and JNJ+Nut, respectively. From left to right of the bottom bar graph of FIG. 20B, the bars correspond to DMSO, JNJ, Nut and JNJ+Nut, respectively. FIG. 20C. Me300, SK-MEL37, and B16 cells were treated as above (For B16 panel, 10 μM Nutlin3 was used) and sub-G1 proportion was analyzed. In (B) and (C), the bar graphs (mean±SD) were derived from three independent experiments. *p<0.05. FIG. 20D. Left panel: untreated B16 cells were subcutaneously injected into mice at day 1. […] Compound administration and tumor size measurement were repeated every two days from day 7 onwards. Bar graphs are shown as mean±SD (*p<0.05, n=6). FIG. 20E. Lower panels show representative images of isolated tumors. Right panel: representative H & E staining in B16 tumor section. Bar=20 μm. […]

[2] = tested on: WM278, Me300 and SK-MEL37 melanoma cell lines; assay: clonogenic survival / colony formation assay, Example 8
Experimental: Cells were transfected with siRNA as shown and pre-seeded on 6 well plates ON, 0.3 μM cyclin B1/cdk1 inhibitors K00616a were then added for 48 hours to block iASPP modification. Cells were then treated with 0.3 μM K00616a, 20 μM nutlin3, or combinations of these drugs for another 72 hours. Cells were collected and cell cycle status, growth potential, and protein expression pattern were then determined by PI staining/FACS analysis, colony formation assay, and WB, respectively. […] Cells were pre-seeded on 6 well plates for overnight, 0.3 μM cyclin B1/cdk1 inhibitors K00616a were then added for 48 hours to block iASPP modification. Cells were then treated with 0.3 μM K00616a, 20 μM nutlin3, 1 μM PLX4032, or combinations of these drug for another 72 hours. Cells were collected and cell cycle status, growth potential, and protein expression pattern were then determined by PI staining/FACS analysis, colony formation assay, and WB, respectively.
After drugs treatment, cells were digested, counted, and seed in 6-well plates (100, 1 000, 10 000 cells/well). […]
The ability of K00616a to reactivate wild type p53 function in melanoma cells was tested in three melanoma cell lines that all express B-RAFV600E. […] Wild type p53 function was measured by a p53-dependent apoptosis assay, detecting the percentage of cells containing subG1 DNA content and growth suppression in a clonogenic survival assay.

[3] = tested on: iASPP phosphorylated at ser 113; assay: phospho-ser113 iASPP western blot in nocodazole-treated U2OS cells; type: cell-based, human; details: nocodazole 1 μM 16 hours, 0.5 μM JNJ-7706621
Experimental: For the floating and adherent cells, the rounded (mitotic rich) cells were separated from the adherent cells after 24 hours treatment with nocodazole. Lysates were separated on a 6% SDS PAGE gel and proteins analysed by conventional western blotting. iASPP phosphor-[…] was detected using the antibody from rabbit 42310 as described in FIG. 23A, and total iASPP was detected by re-probing the blot with antibody LX049.3. Nucleolin was used as a loading control. […] Consistent with enhanced iASPP phosphorylation in nocodazole arrested mitotic cells, enhanced iASPP phosphorylation on ser 113 was also observed in the floating cells, which are mostly mitotic cells, and not in adherent cells (FIG. 23B). Total iASPP was detected by re-probing the blot with antibody LX049.3. Additionally, the specific binding of iASPP antibody (42310) to phosphorylated ser 113 were evaluated by determining the failure of iASPP antibody (42310) to bind when the protein is not phosphorylated at ser 113. Since CDK kinase phosphorylates iASPP at ser 113, CDK inhibitor JNJ-7706621 was used to treat human U2OS cells. […] Western blotting was carried out as described in FIG. 23B using an 8% SDS PAGE gel. When compared to untreated cells, binding of phosphor-ser 113 specific […] antibody was not observed in the presence 0.5 μM JNJ-7706621 (FIG. 23C). Total iASPP was detected by re-probing the blot with antibody LX049.3.

COc1ccc(C2=N[C@@H](c3ccc(Cl)cc3)[C@@H](c3ccc(Cl)cc3)N2C(=O)N2CCNC(=O)C2)c(OC(C)C)c1 [Nutlin3]
optimal concentration of Nutlin3 to induce maximal p53 expression ([1]; SK-MEL37): 2 µM | optimal concentration of Nutlin3 to induce maximal p53 expression ([1]; WM278 and Me300 cells): 20 µM | growth suppression (colonies) ([2]; WM278, Me300 and SK-MEL37, agent alone): limited | effect on the growth suppression effects of PLX4032 ([2]; added alone to PLX4032): minimal effect

Nc1nc(Nc2ccc(S(N)(=O)=O)cc2)nn1C(=O)c1c(F)cccc1F [JNJ-7706621]
binding of phosphor-ser 113 specific anti-iASPP antibody (iASPP ser 113 phosphorylation) [3]: not observed
